Values quoted from earlier work as cited in patent US20260226377A1, “BIODEGRADABLE MICROCAPSULES CONTAINING LOW LOG P FRA-GRANCE” (priority 2023, published 2026).

Details: octanol/water; source of values not stated (b29 refers to reported values, Pomona92 database)

O=Cc1ccccc1 [benzaldehyde]
logP value: 1.70
